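Step 1: Grow cells in 96-well plates. Step 2: Expose to compound for 48 hours at 5 concentrations. Step 3: Interpolate endpoints linearly; if unreached, use highest concentration. TGI is the concentration that stops growth completely.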
Key:
Assay in all cases: NCI anticancer screen, dose series, 48 h
786-0 renal = system: 786-0 renal
A498 renal = system: A498 renal
A549 NSCLC = system: A549 NSCLC
ACHN renal = system: ACHN renal
BT-549 breast = system: BT-549 breast
CAKI-1 renal = system: CAKI-1 renal
CCRF-CEM leukemia = system: CCRF-CEM leukemia
COLO 205 colon = system: COLO 205 colon
DU-145 prostate = system: DU-145 prostate
EKVX NSCLC = system: EKVX NSCLC
HCC-2998 colon = system: HCC-2998 colon
HCT-116 colon = system: HCT-116 colon
HCT-15 colon = system: HCT-15 colon
HL-60(TB) leukemia = system: HL-60(TB) leukemia
HOP-62 NSCLC = system: HOP-62 NSCLC
HS 578T breast = system: HS 578T breast
HT29 colon = system: HT29 colon
IGROV1 ovarian = system: IGROV1 ovarian
K-562 leukemia = system: K-562 leukemia
KM12 colon = system: KM12 colon
LOX IMVI melanoma = system: LOX IMVI melanoma
M14 melanoma = system: M14 melanoma
MALME-3M melanoma = system: MALME-3M melanoma
MCF7 breast = system: MCF7 breast
MDA-MB-231 breast = system: MDA-MB-231 breast
MDA-MB-435 = system: MDA-MB-435
MDA-N = system: MDA-N
MOLT-4 leukemia = system: MOLT-4 leukemia
NCI-H23 lung = system: NCI-H23 lung
NCI-H460 lung = system: NCI-H460 lung
NCI-H522 lung = system: NCI-H522 lung
NCI/ADR-RES ovarian = system: NCI/ADR-RES ovarian
OVCAR-3 ovarian = system: OVCAR-3 ovarian
OVCAR-4 ovarian = system: OVCAR-4 ovarian
OVCAR-5 ovarian = system: OVCAR-5 ovarian
OVCAR-8 ovarian = system: OVCAR-8 ovarian
PC-3 prostate = system: PC-3 prostate
RPMI-8226 leukemia = system: RPMI-8226 leukemia
RXF 393 renal = system: RXF 393 renal
SF-268 CNS = system: SF-268 CNS
SF-295 CNS = system: SF-295 CNS
SF-539 CNS = system: SF-539 CNS
SK-MEL-2 melanoma = system: SK-MEL-2 melanoma
SK-MEL-28 melanoma = system: SK-MEL-28 melanoma
SK-MEL-5 melanoma = system: SK-MEL-5 melanoma
SK-OV-3 ovarian = system: SK-OV-3 ovarian
SN12C renal = system: SN12C renal
SNB-19 CNS = system: SNB-19 CNS
SNB-75 CNS = system: SNB-75 CNS
SR leukemia = system: SR leukemia
SW-620 colon = system: SW-620 colon
T-47D breast = system: T-47D breast
TK-10 renal = system: TK-10 renal
U251 CNS = system: U251 CNS
UACC-257 melanoma = system: UACC-257 melanoma
UACC-62 melanoma = system: UACC-62 melanoma
UO-31 renal = system: UO-31 renal
HOP-92 NSCLC = system: HOP-92 NSCLC
NCI-H226 lung = system: NCI-H226 lung

Measured: TGI

Clc1cc(OCC23CC4CC(CC(C4)C2)C3)nc(OCC23CC4CC(CC(C4)C2)C3)n1
> 100 µM: 786-0 renal | A498 renal | A549 NSCLC | ACHN renal | BT-549 breast | CAKI-1 renal | CCRF-CEM leukemia | COLO 205 colon | DU-145 prostate | EKVX NSCLC | HCC-2998 colon | HCT-116 colon | HCT-15 colon | HL-60(TB) leukemia | HOP-62 NSCLC | HS 578T breast | HT29 colon | IGROV1 ovarian | K-562 leukemia | KM12 colon | LOX IMVI melanoma | M14 melanoma | MALME-3M melanoma | MCF7 breast | MDA-MB-231 breast | MDA-MB-435 | MDA-N | MOLT-4 leukemia | NCI-H23 lung | NCI-H460 lung | NCI-H522 lung | NCI/ADR-RES ovarian | OVCAR-3 ovarian | OVCAR-4 ovarian | OVCAR-5 ovarian | OVCAR-8 ovarian | PC-3 prostate | RPMI-8226 leukemia | RXF 393 renal | SF-268 CNS | SF-295 CNS | SF-539 CNS | SK-MEL-2 melanoma | SK-MEL-28 melanoma | SK-MEL-5 melanoma | SK-OV-3 ovarian | SN12C renal | SNB-19 CNS | SNB-75 CNS | SR leukemia | SW-620 colon | T-47D breast | TK-10 renal | U251 CNS | UACC-257 melanoma | UACC-62 melanoma | UO-31 renal

NNC(=O)CCC(NS(=O)(=O)c1ccc(Cl)cc1)C(=O)NN (stereo not given)
> 100 µM: 786-0 renal | A498 renal | A549 NSCLC | ACHN renal | BT-549 breast | CAKI-1 renal | CCRF-CEM leukemia | COLO 205 colon | DU-145 prostate | EKVX NSCLC | HCC-2998 colon | HCT-116 colon | HCT-15 colon | HL-60(TB) leukemia | HOP-62 NSCLC | HOP-92 NSCLC | HS 578T breast | HT29 colon | IGROV1 ovarian | K-562 leukemia | KM12 colon | LOX IMVI melanoma | M14 melanoma | MALME-3M melanoma | MCF7 breast | MDA-MB-231 breast | MDA-MB-435 | MDA-N | MOLT-4 leukemia | NCI-H226 lung | NCI-H23 lung | NCI-H460 lung | NCI-H522 lung | NCI/ADR-RES ovarian | OVCAR-3 ovarian | OVCAR-4 ovarian | OVCAR-5 ovarian | OVCAR-8 ovarian | PC-3 prostate | RXF 393 renal | SF-268 CNS | SF-295 CNS | SF-539 CNS | SK-MEL-2 melanoma | SK-MEL-28 melanoma | SK-MEL-5 melanoma | SK-OV-3 ovarian | SN12C renal | SNB-19 CNS | SNB-75 CNS | SR leukemia | SW-620 colon | T-47D breast | TK-10 renal | U251 CNS | UACC-257 melanoma | UACC-62 melanoma | UO-31 renal
